Patent US20160022751A1, “NOVEL COMPOSITION FOR TREATING ALZHEIMER'S DISEASE AND IMPROVING COGNITIVE FUNCTION OF ALZHEIMER'S PATIENTS” (GANGNEUNG-WONJU NATIONAL UNIVERSITY INDUSTRY ACADEMY …, priority 2014, published 2016)

Assays:
clathrin = assay: Clathrin mRNA expression in HMO6 human microglial cells (qPCR); type: cell-based; settings: Aβ42 (5 μM) and/or Rg3 (2.5 or 5 μg/ml), 24 h (FIG. 15C)
Description: FIG. 15 is a graph showing a change in the expression of caveolin-1, caveolin-2, clathrin, neprilysin (NEP), insulin-degrading enzyme (IDE) according to treating Aβ and/or ginsenoside Rg3 to HMO6 human microglial cells. HMO6 cells were plated on 35 mm cell culture plates or chamber slides and Aβ42 (5 μM) and/or Rg3 (2.5 or 5 μg/ml) were treated for 24 h. Then, the mRNA expression was determined by quantitative RT-PCR. The expression of caveolin (A-B), clathrin (C) which are endocytosis-related genes and NEP (D) and IDE (E) which are genes encoding Aβ-degrading enzymes were compared depending on the presence or absence of Rg3/Aβ42. The results are shown as mean±SD. * P<0.05, ** P<0.01, *** P<0.001. […]
Total RNA extracts from HMO6 cells or perfused brain tissue were prepared using the Trizol method (Invitrogen). cDNA was synthesized from RNA by reverse transcription of 1 μg total RNA using the Improm-II reverse transcription system (Promega, Wis., USA) and oligo dT primers in a total volume of 20 μl. […] Relative sample expression levels were calculated using Rotor-Gene 6000 Series Software 1.7 and were expressed relative to β-actin for mice or glyceraldehyde 3-phosphate dehydrogenase for HMO6 cells and corrected for between-run variability. Data for the experimental samples are expressed as a percentage of the internal control gene. […]

SRA [1] = assay: In vivo SRA mRNA expression in brain tissues (RT-PCR); settings: mice administrated with Rg3 (FIG. 24A)
Description: Total RNA extracts from HMO6 cells or perfused brain tissue were prepared using the Trizol method (Invitrogen). cDNA was synthesized from RNA by reverse transcription of 1 μg total RNA using the Improm-II reverse transcription system (Promega, Wis., USA) and oligo dT primers in a total volume of 20 μl. PCR amplification was performed using the primers listed in Table 1 (Bioneer, Korea). qPCR reactions were run on a Rotor-Gene 6000 (Corbett Research, Sydney, Australia) using a SensiMix™ SYBR Hi-ROX Kit (Bioline, UK) in 20 μl reaction mixtures. Each real-time-PCR master mix contained 10 μl 2× enzyme master mix, 7 μl RNase free water, 1 μl of each primer (10 pM each), and 1 μl diluted template. The PCR was performed with an initial pre-incubation step for 15 min at 95° C., followed by 45 cycles of 95° C. for 15 s, annealing at 52° C. for 15 s, and extension at 72° C. for 10 s. […] Relative sample expression levels were calculated using Rotor-Gene 6000 Series Software 1.7 and were expressed relative to β-actin for mice or glyceraldehyde 3-phosphate dehydrogenase for HMO6 cells and corrected for between-run variability. Data for the experimental samples are expressed as a percentage of the internal control gene. […]

SRA [2] = assay: In vivo SRA protein expression in brain tissues (western blot); settings: mice administrated with Rg3 (FIG. 24B)
Text: HMO6 cells were lysed in 1% RIPA buffer containing protease and phosphatase inhibitors (Roche, Mannheim, Germany) and whole-cell lysates were separated on 10% sodium dodecyl sulfate-polyacrylamide gel electrophoresis. After electrophoresis, the proteins were transferred to polyvinylidene fluoride membranes, and the membranes were blocked with 5% skim milk in Tris-buffered saline solution containing 0.1% Tween-20. The membranes were then immunoblotted with primary antibodies, anti-phospho-p38, anti-p38, anti-phospho-ERK, anti-ERK, and anti-f3-actin (Santa Cruz Biotechnology, USA), followed by incubation with horseradish peroxidase-conjugated anti-rabbit or anti-mouse secondary antibodies (Stressgen, USA). Blots were developed using an enhanced chemiluminescent solution (Thermo, USA).
The present inventor investigated whether ginsenoside Rg3 translocated to brain tissues contributes to the uptake and degradation of Aβ42 in order to determine whether in vitro experimental results described in the Example 5 can be applied to in vivo condition in the same manner. Specifically, the expression level of SRA and SRB gene within brain tissues of mice administrated with Rg3 was determined using the RT-PCR analysis described in the Example 5-4 (FIG. 24A) and the western blot analysis described in the Example 5-6 (FIG. 24B). […]

Question: Which “clathrin-mediated Aβ42 endocytosis (clathrin mRNA)” value (clathrin) does the source give for `CC(C)=CCC[C@](C)(O)[C@H]1CC[C@]2(C)[C@@H]1[C@H](O)C[C@@H]1[C@@]3(C)CC[C@H](O[C@@H]4O[C@H](CO)[C@@H](O)[C@H](O)[C@H]4O[C@@H]4O[C@H](CO)[C@@H](O)[C@H](O)[C@H]4O)C(C)(C)[C@@H]3CC[C@]12C` [ginsenoside Rg3] here?
Answer: promoted Aβ42 uptake into HMO6 cells via a caveolin1 and clathrin-mediated endocytic mechanism

Question: What about the “expression of SRA mRNA in brain tissues” value (SRA [1]) of the same compound?
Answer: increased

Question: What about the “expression of SRA protein in brain tissues” value (SRA [2]) of the same compound?
Answer: increased
